Patent publication US11866430B2, “Naphthyridinone compounds useful as T cell activators” (priority 2018, dated 2024)

Experiments:
[1] = test system: pre-activated CD4 T cells and Raji cells; test: Raji CD4 T Cell IL2 Assay; format: cell-based; settings: Homo sapiens, Raji
[2] = molecular target: human DGKα (Homo sapiens (Human), UniProt P23743); test: biochemical; settings: detergent/lipid micelle substrate; read-out: DGKα IC50
Summary of the method: (§1)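 Full-length human DGKα or DGKζ (C-terminal His tag, Sf9-expressed; 20 nM 4× stock) was preincubated 10 min at room temperature with PS/DAG octyl glucoside micelles in MOPS pH 7.5 buffer with MgCl2, CaCl2 and DTT. It was then started with ATP (300 uM addition) and run for 1 hr, with ADP-Glo luminescence read-out.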

[3] = molecular target: human DGKζ (Homo sapiens (Human), UniProt Q13574); test: DGKζ assay (detergent/lipid micelle substrate); format: biochemical; settings: detergent/lipid micelle substrate; read-out: DGKζ IC50
Chain of human DGKζ (Q13574 other isoform, or with tags, fused parts or gaps): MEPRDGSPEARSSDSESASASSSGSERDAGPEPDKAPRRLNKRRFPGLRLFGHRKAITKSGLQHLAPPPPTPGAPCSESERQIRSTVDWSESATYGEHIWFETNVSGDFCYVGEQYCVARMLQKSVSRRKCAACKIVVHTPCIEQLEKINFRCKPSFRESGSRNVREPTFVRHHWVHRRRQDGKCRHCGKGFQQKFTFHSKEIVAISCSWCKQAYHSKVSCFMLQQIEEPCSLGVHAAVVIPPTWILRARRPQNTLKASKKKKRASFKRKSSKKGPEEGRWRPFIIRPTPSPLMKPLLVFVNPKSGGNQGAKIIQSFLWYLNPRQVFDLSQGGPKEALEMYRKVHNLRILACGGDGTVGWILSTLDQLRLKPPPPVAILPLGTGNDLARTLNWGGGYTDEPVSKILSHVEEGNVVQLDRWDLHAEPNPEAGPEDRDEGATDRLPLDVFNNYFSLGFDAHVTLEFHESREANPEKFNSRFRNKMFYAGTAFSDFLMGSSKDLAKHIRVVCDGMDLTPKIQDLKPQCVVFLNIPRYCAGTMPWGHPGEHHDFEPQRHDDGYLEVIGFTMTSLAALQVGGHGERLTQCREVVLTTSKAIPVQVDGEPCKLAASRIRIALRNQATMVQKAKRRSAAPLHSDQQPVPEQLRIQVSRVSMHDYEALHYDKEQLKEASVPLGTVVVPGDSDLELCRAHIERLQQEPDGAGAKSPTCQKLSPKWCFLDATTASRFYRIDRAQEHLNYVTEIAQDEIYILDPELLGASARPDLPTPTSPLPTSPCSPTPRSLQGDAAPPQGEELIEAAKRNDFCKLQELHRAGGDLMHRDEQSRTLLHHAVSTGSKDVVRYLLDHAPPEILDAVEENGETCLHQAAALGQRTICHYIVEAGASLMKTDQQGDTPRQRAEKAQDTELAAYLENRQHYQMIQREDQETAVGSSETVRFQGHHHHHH
Summary of the method: as §1

Chain of human DGKα (P23743 other isoform, or with tags, fused parts or gaps): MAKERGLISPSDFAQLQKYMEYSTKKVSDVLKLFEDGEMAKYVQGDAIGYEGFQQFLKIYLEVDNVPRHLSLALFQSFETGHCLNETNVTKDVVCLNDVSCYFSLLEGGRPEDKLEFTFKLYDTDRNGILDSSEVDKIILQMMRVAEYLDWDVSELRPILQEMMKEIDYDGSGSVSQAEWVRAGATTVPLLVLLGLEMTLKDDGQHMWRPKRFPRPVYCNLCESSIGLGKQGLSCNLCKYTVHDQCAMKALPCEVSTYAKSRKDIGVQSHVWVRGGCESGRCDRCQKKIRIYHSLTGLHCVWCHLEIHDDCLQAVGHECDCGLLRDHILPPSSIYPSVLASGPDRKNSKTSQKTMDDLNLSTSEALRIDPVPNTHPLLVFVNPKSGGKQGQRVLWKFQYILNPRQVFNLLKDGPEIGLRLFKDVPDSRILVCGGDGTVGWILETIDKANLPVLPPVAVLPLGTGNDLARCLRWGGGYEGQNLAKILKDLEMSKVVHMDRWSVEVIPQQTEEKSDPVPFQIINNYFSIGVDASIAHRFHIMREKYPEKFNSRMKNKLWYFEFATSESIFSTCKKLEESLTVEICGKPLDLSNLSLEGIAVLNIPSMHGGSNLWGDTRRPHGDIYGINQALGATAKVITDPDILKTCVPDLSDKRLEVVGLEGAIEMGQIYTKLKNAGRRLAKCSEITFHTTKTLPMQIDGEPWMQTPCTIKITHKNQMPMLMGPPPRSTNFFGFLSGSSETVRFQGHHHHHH

| Compound | IC50 [1] | IC50 [2] | IC50 [3] |
| --- | --- | --- | --- |
| COCCn1c(=O)c([N+](=O)[O-])c(N2CCN(C(c3ccc(F)cc3)c3ccc(F)cc3)CC2)c2nc(C#N)ccc21 [Example 147, 8-(4-(bis(4-fluorophenyl)methyl)piperazin-yl)-5-(2-methoxyethyl)-7-nitro-6-oxo-5,6-dihydro-1,5-naphthyridine-2-carbonitrile] | 0.3 µM | 76 µM | 3.6 µM |
| N#CCn1c(=O)c([N+](=O)[O-])c(N2CCN(C(c3ccc(F)cc3)c3ccc(F)cc3)CC2)c2nc(C#N)ccc21 [Example 152, 8-(4-(bis(4-fluorophenyl)methyl)piperazin-1-yl)-5-(cyanomethyl)-7-nitro-6-oxo-5,6-dihydro-1,5-naphthyridine-2-carbonitrile] | 0.15 µM | 150 µM | 3.9 µM |
| N#CCn1c(=O)c(C#N)c(N2CCN(C(c3ccc(F)cc3)c3ccc(F)cc3)CC2)c2nc(Br)ccc21 [Example 153, 4-(4-(bis(4-fluorophenyl)methyl)piperazin-1-yl)-6-bromo-1-(cyanomethyl)-2-oxo-1,2-dihydro-1,5-naphthyridine-3-carbonitrile] | 0.71 µM | 180 µM | 76 µM |
| N#CCn1c(=O)c(C#N)c(N2CCN(C(c3ccc(F)cc3)c3ccccc3O)CC2)c2nc(Br)ccc21 (stereo not drawn) [Example 157, 6-bromo-1-(cyanomethyl)-4-(4-((4-fluorophenyl)(2-hydroxyphenyl)methyl)piperazin-1-yl)-2-oxo-1,2-dihydro-1,5-naphthyridine-3-carbonitrile] | 0.22 µM | 53 µM | 26 µM |
| N#Cc1c(N2CCN(C(c3ccc(F)cc3)c3ccc(F)cc3)CC2)c2nc(Br)ccc2n(CC2CC2)c1=O [Example 161, 4-(4-(bis(4-fluorophenyl)methyl)piperazin-1-yl)-6-bromo-1-(cyclopropylmethyl)-2-oxo-1,2-dihydro-1,5-naphthyridine-3-carbonitrile] | 5.7 µM | > 240 µM | > 81 µM |
| O=c1c([N+](=O)[O-])c(N2CCN(C(c3ccccc3)c3ccccc3)CC2)c2ncccc2n1CCC=C(F)F [Example 186, 4-(4-benzhydrylpiperazin-1-yl)-1-(4,4-difluorobut-3-en-1-yl)-3-nitro-1,5-naphthyridin-2(1H)-one] | 3 µM | > 240 µM | > 240 µM |
| COCCOCCCn1c(=O)c([N+](=O)[O-])c(N2CCN(C(c3ccccc3)c3ccccc3)CC2)c2ncccc21 [Example 189, 4-(4-benzhydrylpiperazin-1-yl)-1-(3-(2-methoxyethoxy)propyl)-3-nitro-1,5-naphthyridin-2(1H)-one] | 7.3 µM | 130 µM | > 240 µM |
| COCCCn1c(=O)c([N+](=O)[O-])c(N2CCN(C(c3ccccc3)c3ccccc3)CC2)c2ncccc21 [Example 190, 4-(4-benzhydrylpiperazin-1-yl)-1-(3-methoxypropyl)-3-nitro-1,5-naphthyridin-2(1H)-one] | 4.2 µM | 58 µM | > 240 µM |
| Cn1c(=O)c(C#N)c(N2CCN(Cc3ccccc3O)CC2)c2nc(Cl)ccc21 [Example 198, 6-chloro-4-(4-(2-hydroxybenzyl)piperazin-1-yl)-1-methyl-2-oxo-1,2-dihydro-1,5-naphthyridine-3-carbonitrile] | 0.5 µM | 0.074 µM | 150 µM |
| CCN(C)c1cccc(CN2CCN(c3c(C#N)c(=O)n(C)c4ccc(Cl)nc34)CC2)c1 [Example 199, 6-chloro-4-(4-(3-(ethyl(methyl)amino)benzyl)piperazin-1-yl)-1-methyl-2-oxo-1,2-dihydro-1,5-naphthyridine-3-carbonitrile] | 0.38 µM | 0.48 µM | > 240 µM |
| C=CCOc1cc(F)cc2c1C(N1CCN(c3c(C#N)c(=O)n(C)c4ccc(Cl)nc34)CC1)CC2 (stereo not drawn) [Example 200, 4-(4-(7-(allyloxy)-5-fluoro-2,3-dihydro-1H-inden-1-yl)piperazin-1-yl)-6-chloro-1-methyl-2-oxo-1,2-dihydro-1,5-naphthyridine-3-carbonitrile] | 1.6 µM | 24 µM | > 240 µM |
| CCc1ccc2c(n1)c(N1CCN(C(c3ccccc3)c3ccccc3)CC1)c(C#N)c(=O)n2C [Example 202, 4-(4-benzhydrylpiperazin-1-yl)-6-ethyl-1-methy-2-oxo-1,2-dihydro-1,5-naphthyridine-3-carbonitrile] | 0.4 µM | 31 µM | 12 µM |
| Cn1c(=O)c(C#N)c(N2CCN(Cc3ccccc3NC(=O)c3ccccc3)CC2)c2nc(Br)ccc21 [Example 213, N-(2-((4-(6-bromo-3-cyano-1-methyl-2-oxo-1,2-dihydro-1,5-naphthyridin-4-yl)piperazin-1-yl)methyl)phenyl)benzamide] | 0.71 µM | 3.1 µM | > 240 µM |
| Cn1c(=O)c(C#N)c(N2CCN(Cc3ccccc3NC(=O)Nc3ccccc3)CC2)c2nc(Br)ccc21 [Example 214, 1-(2-((4-(6-bromo-3-cyano-1-methyl-2-oxo-1,2-dihydro-1,5-naphthyridin-4-yl)piperazin-1-yl)methyl)phenyl)-3-phenylurea] | 0.55 µM | 3.1 µM | > 81 µM |
| CC(=O)Nc1ccccc1CN1CCN(c2c(C#N)c(=O)n(C)c3ccc(Br)nc23)CC1 [Example 215, N-(2-((4-(6-bromo-3-cyano-1-methyl-2-oxo-1,2-dihydro-1,5-naphthyridin-4-yl)piperazin-1-yl)methyl)phenyl)acetamide] | 0.48 µM | 4.1 µM | > 81 µM |
| CCn1ccc2c(CN3CCN(c4c(C#N)c(=O)n(C)c5ccc(Cl)nc45)CC3)cccc21 [Example 220, 6-chloro-4-(4-((1-ethyl-1H-indol-4-yl)methyl)piperazin-1-yl)-1-methyl-2-oxo-1,2-dihydro-1,5-naphthyridine-3-carbonitrile] | 0.063 µM | 1.7 µM | 89 µM |
| Cn1c(=O)c(Br)c(N2CCN(C(c3ccc(F)cc3)c3ccc(F)cc3)CC2)c2ncccc21 [Example 230, 4-(4-(bis(4-fluorophenyl)methyl)piperazin-1-yl)-3-bromo-1-methyl-1,5-naphthyridin-2(1H)-one] | 3.6 µM | 8.8 µM | > 240 µM |
| CN(C)C(=O)c1ccc2c(n1)c(N1CCN(C(c3ccc(F)cc3)c3ccc(F)cc3)CC1)c(C#N)c(=O)n2C [Example 231, 8-(4-(bis(4-fluorophenyl)methyl)piperazin-1-yl)-7-cyano-N,N,5-trimethyl-6-oxo-5,6-dihydro-1,5-naphthyridine-2-carboxamide] | 3 µM | 170 µM | > 240 µM |
| Cc1ccc2c(n1)c(N1CCN(C(c3ccc(F)cc3)c3ccc(F)cc3)CC1)c(C(F)(F)F)c(=O)n2C [Example 232, 4-(4-(bis(4-fluorophenyl)methyl)piperazin-1-yl)-1,6-dimethyl-3-(trifluoromethyl)-1,5-naphthyridin-2(1H)-one] | 1.1 µM | 150 µM | > 240 µM |
| COCCn1c(=O)c([N+](=O)[O-])c(N2CCN(C(c3ccccc3)c3ccccc3)CC2)c2ncccc21 [Example 244, 4-[4-(diphenylmethyl)piperazin-1-yl]-1-(2-methoxyethyl)-3-nitro-1,2-dihydro-1,5-naphthyridin-2-one] | 0.69 µM | 32 µM | > 81 µM |
| Cc1ccc2c(n1)c(N1CCN(Cc3cc(OC(F)(F)F)ccc3O)CC1)c(C#N)c(=O)n2C [Example 262, 4-(4-{[2-hydroxy-5-(trifluoromethoxy)phenyl]methyl}piperazin-1-yl)-1,6-dimethyl-2-oxo-1,2-dihydro-1,5-naphthyridine-3-carbonitrile] | 0.028 µM | 0.52 µM | > 240 µM |
| COc1cccc(O)c1CN1CCN(c2c(C#N)c(=O)n(C)c3ccc(Cl)nc23)CC1 [Example 264, 6-chloro-4-{4-[(2-hydroxy-6-methoxyphenyl)methyl]piperazin-1-yl}-1-methyl-2-oxo-1,2-dihydro-1,5-naphthyridine-3-carbonitrile] | 0.036 µM | 0.62 µM | > 240 µM |
| Cn1c(=O)c(C#N)c(N2CCN(Cc3ccc(OC(F)(F)F)cc3O)CC2)c2nc(C#N)ccc21 [Example 265, 8-(4-{[2-hydroxy-4-(trifluoromethoxy)phenyl]methyl}piperazin-1-yl)-5-methyl-6-oxo-5,6-dihydro-1,5-naphthyridine-2,7-dicarbonitrile] | 0.039 µM | 0.034 µM | 36 µM |
| Cn1c(=O)c(C#N)c(N2CCN(Cc3c(O)cccc3Cl)CC2)c2nc(Cl)ccc21 [Example 267, 6-chloro-4-{4-[(2-chloro-6-hydroxyphenyl)methyl]piperazin-1-yl}-1-methyl-2-oxo-1,2-dihydro-1,5-naphthyridine-3-carbonitrile] | 0.048 µM | 0.31 µM | > 240 µM |
| Cn1c(=O)c(C#N)c(N2CCN(Cc3cccc(Br)c3O)CC2)c2nc(Cl)ccc21 [Example 268, 4-{4-[(3-bromo-2-hydroxyphenyl)methyl]piperazin-1-yl}-6-chloro-1-methyl-2-oxo-1,2-dihydro-1,5-naphthyridine-3-carbonitrile] | 0.051 µM | 0.68 µM | 120 µM |
| Cn1c(=O)c(C#N)c(N2CCN(Cc3cc(OC(F)(F)F)ccc3O)CC2)c2nc(Br)ccc21 [Example 270, 6-bromo-4-(4-{[2-hydroxy-5-(trifluoromethoxy)phenyl]methyl}piperazin-1-yl)-1-methyl-2-oxo-1,2-dihydro-1,5-naphthyridine-3-carbonitrile] | 0.059 µM | 0.19 µM | > 240 µM |
